pEC50: −log10 of the molar value.
Target: T1, hmGluR4 (Homo sapiens, UniProt Q14833)
T1 construct: host or cells: HEK293T
Test: HEK-293 mGluR4 cells cAMP assay with EC20 L-Glutamate (HTRF)
Type: cell-based
Conditions: not given
How it was run: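 PAM mode in mGluR4 HEK293T suspension cells, glutamine-starved overnight; 10 μM forskolin (final) with EC20 L-glutamate (2.3 μM), 2000 cells/well, 30 min at 37 °C. cAMP measured by two-step HTRF after 60 min at room temperature. Basal control EC20 glutamate; EC100 400 μM glutamate (2×).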

T1 sequence (Q14833 33-912): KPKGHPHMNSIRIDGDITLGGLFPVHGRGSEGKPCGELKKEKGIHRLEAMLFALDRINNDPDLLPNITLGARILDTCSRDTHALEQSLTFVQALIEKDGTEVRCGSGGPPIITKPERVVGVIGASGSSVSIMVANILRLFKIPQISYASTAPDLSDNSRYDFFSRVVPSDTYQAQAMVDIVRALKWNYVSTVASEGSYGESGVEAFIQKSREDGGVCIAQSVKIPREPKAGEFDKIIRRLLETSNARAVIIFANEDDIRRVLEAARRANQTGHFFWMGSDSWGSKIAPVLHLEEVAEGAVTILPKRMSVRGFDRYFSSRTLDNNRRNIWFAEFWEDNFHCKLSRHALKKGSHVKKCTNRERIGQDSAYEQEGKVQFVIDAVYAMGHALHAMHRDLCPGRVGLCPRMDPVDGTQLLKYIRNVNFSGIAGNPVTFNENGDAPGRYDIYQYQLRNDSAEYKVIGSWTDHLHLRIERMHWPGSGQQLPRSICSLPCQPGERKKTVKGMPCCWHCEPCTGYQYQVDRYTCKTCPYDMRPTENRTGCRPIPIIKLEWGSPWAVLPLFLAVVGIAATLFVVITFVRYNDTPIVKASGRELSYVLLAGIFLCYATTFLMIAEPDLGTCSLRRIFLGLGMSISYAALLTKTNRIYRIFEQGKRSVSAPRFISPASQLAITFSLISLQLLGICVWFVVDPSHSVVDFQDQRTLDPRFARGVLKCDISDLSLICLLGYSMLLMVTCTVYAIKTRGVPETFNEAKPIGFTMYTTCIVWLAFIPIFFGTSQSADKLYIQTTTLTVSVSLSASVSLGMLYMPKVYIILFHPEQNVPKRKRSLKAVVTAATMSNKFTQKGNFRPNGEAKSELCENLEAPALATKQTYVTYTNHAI

| Compound | pEC50 |
| --- | --- |
| COc1ccc(N2C(=O)c3ccc(Br)cc3NC23CCN(Cc2ccc(F)c(F)c2)CC3)cc1F [Compound 24, 7′-Bromo-1-(3,4-difluorobenzyl)-3′-(3-fluoro-4-methoxyphenyl)-1′H-spiro[piperidine-4,2′-quinazolin]-4′(3′H)-one] | > 6.00 |

Same assay, conditions: positive allosteric activity at EC20 L-Glutamate, 10 μM Forskolin, HEK293T mGluR4 cells, cAMP HTRF; read-out: hrmGluR4/HEK293T-hmGluR4 (EC50)

| Compound | pEC50 |
| --- | --- |
| CSc1ccc(N2C(=O)c3ccc(Br)cc3NC23CCN(Cc2ccc(F)c(F)c2)CC3)cc1 [Compound 5, 7′-Bromo-1-(3,4-difluorobenzyl)-3′-(4-(methylthio)phenyl)-1′H-spiro[piperidine-4,2′-quinazolin]-4′(3′H)-one] | > 6.00 |
| COc1ccc(N2C(=O)c3ccccc3NC23CCC(Nc2ccccc2)CC3)cc1 (centres unmarked) [Compound 44, 3′-(4-Methoxyphenyl)-4-(phenylamino)-1′H-spiro[cyclohexane-1,2′-quinazolin]-4′(3′H)-one] | > 6.00 |
| COc1ccc(N2C(=O)c3ccccc3NC23CCN(Cc2cc(F)cc(F)c2)CC3)cc1 [Compound 80, 1-(3,5-Difluorobenzyl)-3′-(4-methoxyphenyl)-1′H-spiro[piperidine-4,2′-quinazolin]-4′(3′H)-one] | 5.00 to 6.00 |
| CCC(c1ccc(F)c(F)c1)N1CCC2(CC1)Nc1cc(Br)ccc1C(=O)N2c1ccc(Cl)cc1 (centres unmarked) [Compound 33, 7′-Bromo-3′-(4-chlorophenyl)-1-(1-(3,4-difluorophenyl)propyl)-1′H-spiro[piperidine-4,2′-quinazolin]-4′(3′H)-one] | > 6.00 |
| COc1ccc(N2C(=O)c3ccc(-c4ccccc4)cc3NC23CCN(Cc2ccc(F)c(F)c2)CC3)cc1 [Compound 19, 1-(3,4-Difluorobenzyl)-3′-(4-methoxyphenyl)-7′-phenyl-1′H-spiro[piperidine-4,2′-quinazolin]-4′(3′H)-one] | > 6.00 |
| COc1ccc(N2C(=O)c3ccc(-c4ccc(CN(C)C)o4)cc3NC23CCN(Cc2ccc(F)c(F)c2)CC3)cc1 [Compound 117, 1-(3,4-Difluorobenzyl)-7′-(5-((dimethylamino)methyl)furan-2-yl)-3′-(4-methoxyphenyl)-1′H-spiro[piperidine-4,2′-quinazolin]-4′(3′H)-one] | 5.00 to 6.00 |
| O=C1c2ccc(F)cc2NC2(CCN(Cc3ccc(F)c(F)c3)CC2)N1c1ccc(OC(F)(F)F)cc1 [Compound 69, 1-(3,4-Difluorobenzyl)-7′-fluoro-3′-(4-(trifluoromethoxy)phenyl)-1′H-spiro[piperidine-4,2′-quinazolin]-4′(3′H)-one] | 5.00 to 6.00 |
| CCOC(=O)c1ccc2c(c1)NC1(CN(C(C)c3ccc(F)cc3)C1)N(c1ccc(OC(F)(F)F)cc1)C2=O (centres unmarked) [Compound 87, Ethyl 1-(1-(4-fluorophenyl)ethyl)-4′-oxo-3′-(4-(trifluoromethoxy)phenyl)-3′,4′-dihydro-1′H-spiro[azetidine-3,2′-quinazoline]-7′-carboxylate] | 5.00 to 6.00 |
| COc1ccc(N2C(=O)c3ccccc3NC23CN(Cc2cccc(C)c2)C3)cc1 [Compound 89, 3′-(4-Methoxyphenyl)-1-(3-methylbenzyl)-1′H-spiro[azetidine-3,2′-quinazolin]-4′(3′H)-one] | 5.00 to 6.00 |
| CCOC(=O)c1ccc2c(c1)NC1(CN(Cc3ccccc3Cl)C1)N(c1ccc(OC(F)(F)F)cc1)C2=O [Compound 18, Ethyl 1-(2-chlorobenzyl)-4′-oxo-3′-(4-(trifluoromethoxy)phenyl)-3′,4′-dihydro-1′H-spiro[azetidine-3,2′-quinazoline]-7′-carboxylate] | > 6.00 |
| COc1ccc(N2C(=O)c3ccc(-c4ccncc4)cc3NC23CCN(Cc2ccc(F)c(F)c2)CC3)cc1 [Compound 20, 1-(3,4-Difluorobenzyl)-3′-(4-methoxyphenyl)-7′-(pyridin-4-yl)-1′H-spiro[piperidine-4,2′-quinazolin]-4′(3′H)-one] | > 6.00 |
| O=C1c2ccc(Br)cc2NC2(CCN(Cc3ccncc3)CC2)N1c1ccc(OC(F)(F)F)cc1 [Compound 97, 7′-Bromo-1-(pyridin-4-ylmethyl)-3′-(4-(trifluoromethoxy)phenyl)-1′H-spiro[piperidine-4,2′-quinazolin]-4′(3′H)-one] | 5.00 to 6.00 |
| O=C1c2ccc(F)cc2NC2(CCN(Cc3ccc(F)c(F)c3)CC2)N1c1ccc(Cl)cc1 [Compound 64, 3′-(4-Chlorophenyl)-1-(3,4-difluorobenzyl)-7′-fluoro-1′H-spiro[piperidine-4,2′-quinazolin]-4′(3′H)-one] | > 6.00 |
| COc1cccc(N2C(=O)c3ccccc3NC23CCN(Cc2cc(Cl)ccc2Cl)CC3)c1 [Compound 115, 1-(2,5-Dichlorobenzyl)-3′-(3-methoxyphenyl)-1′H-spiro[piperidine-4,2′-quinazolin]-4′(3′H)-one] | 5.00 to 6.00 |
| CCC(c1ccccc1)N1CCC2(CC1)Nc1cc(Br)ccc1C(=O)N2c1ccc(OC(F)(F)F)cc1 (centres unmarked) [Compound 48, 7′-Bromo-1-(1-phenylpropyl)-3′-(4-(trifluoromethoxy)phenyl)-1′H-spiro[piperidine-4,2′-quinazolin]-4′(3′H)-one] | > 6.00 |
| O=C1c2ccc(Br)cc2NC2(CCN(C(c3cccc(F)c3)C(F)(F)F)CC2)N1c1ccc(OC(F)(F)F)cc1 (centres unmarked) [Compound 43, 7′-Bromo-1-(2,2,2-trifluoro-1-(3-fluorophenyl)ethyl)-3′-(4-(trifluoromethoxy)phenyl)-1′H-spiro[piperidine-4,2′-quinazolin]-4′(3′H)-one] | > 6.00 |

| Compound | pEC50 |
| --- | --- |
| COc1ccc(N2C(=O)c3ccc(OC)cc3NC23CCN(Cc2ccc(Cl)s2)CC3)cc1 [Compound 59, 1-((5-Chlorothiophen-2-yl)methyl)-7′-methoxy-3′-(4-methoxyphenyl)-1′H-spiro[piperidine-4,2′-quinazolin]-4′(3′H)-one] | > 6.00 |
| COc1ccc(N2C(=O)c3ccc(Cl)cc3NC23CCN(Cc2ccccc2Cl)CC3)cc1 [Compound 62, 7′-Chloro-1-(2-chlorobenzyl)-3′-(4-methoxyphenyl)-1′H-spiro[piperidine-4,2′-quinazolin]-4′(3′H)-one] | > 6.00 |
| COc1ccc(N2C(=O)c3ccccc3NC23CN(Cc2ccc(Cl)c(Cl)c2)C3)cc1 [Compound 56, 1-(3,4-Dichlorobenzyl)-3′-(4-methoxyphenyl)-1′H-spiro[azetidine-3,2′-quinazolin]-4′(3′H)-one] | > 6.00 |
| O=C1c2ccc(Br)cc2NC2(CCN(Cc3ccccc3)CC2)N1c1ccc(Cl)cc1 [Compound 71, 1-Benzyl-7′-bromo-3′-(4-chlorophenyl)-1′H-spiro[piperidine-4,2′-quinazolin]-4′(3′H)-one] | 5.00 to 6.00 |
| O=C(OCC1CC1)c1ccc2c(c1)NC1(CCN(Cc3ccc(F)c(F)c3)CC1)N(c1ccc(OC(F)(F)F)cc1)C2=O [Compound 58, Cyclopropylmethyl 1-(3,4-difluorobenzyl)-4′-oxo-3′-(4-(trifluoromethoxy)phenyl)-3′,4′-dihydro-1′H-spiro[piperidine-4,2′-quinazoline]-7′-carboxylate] | > 6.00 |
| CC(=O)c1cc2c(cc1Br)C(=O)N(c1ccc(OC(F)(F)F)cc1)C1(CCN(Cc3ccc(F)c(F)c3)CC1)N2 [Compound 12, 7′-Acetyl-6′-bromo-1-(3,4-difluorobenzyl)-3′-(4-(trifluoromethoxy)phenyl)-1′H-spiro[piperidine-4,2′-quinazolin]-4′(3′H)-one] | > 6.00 |
| N#Cc1cccc(CN2CCC3(CC2)Nc2cc(C(F)(F)F)ccc2C(=O)N3c2ccc(OC(F)(F)F)cc2)c1 [Compound 42, 3-((4′-Oxo-3′-(4-(trifluoromethoxy)phenyl)-7′-(trifluoromethyl)-3′,4′-dihydro-1′H-spiro[piperidine-4,2′-quinazolin]-1-yl)methyl)benzonitrile] | > 6.00 |
| CC(c1ccccc1)N1CCC2(CC1)Nc1cc(Br)ccc1C(=O)N2c1ccc(Cl)cc1 (centres unmarked) [Compound 26, 7′-Bromo-3′-(4-chlorophenyl)-1-(1-phenylethyl)-1′H-spiro[piperidine-4,2′-quinazolin]-4′(3′H)-one] | > 6.00 |
| COc1ccc(N2C(=O)c3ccc(OC)cc3NC23CCN(Cc2cccc(F)c2)CC3)cc1 [Compound 68, 1-(3-Fluorobenzyl)-7′-methoxy-3′-(4-methoxyphenyl)-1′H-spiro[piperidine-4,2′-quinazolin]-4′(3′H)-one] | 5.00 to 6.00 |
| O=C(Nc1ccc(OC(F)(F)F)cc1)c1ccc(Br)cc1O [Compound 125, 4-Bromo-2-hydroxy-N-(4-trifluoromethoxy-phenyl)-benzamide] | > 6.00 |
| COc1ccc(N2C(=O)c3ccccc3NC23CN(Cc2c(F)cc(F)cc2F)C3)cc1 [Compound 119, 3′-(4-Methoxyphenyl)-1-(2,4,6-trifluorobenzyl)-1′H-spiro[azetidine-3,2′-quinazolin]-4′(3′H)-one] | 5.00 to 6.00 |
| COc1ccc(N2C(=O)c3ccccc3NC23CCN(Cc2ccccc2Cl)CC3)cc1 [Compound 111, 1-(2-Chlorobenzyl)-3′-(4-methoxyphenyl)-1′H-spiro[piperidine-4,2′-quinazolin]-4′(3′H)-one] | 5.00 to 6.00 |
| COc1ccc(N2C(=O)c3ccc(-c4ccccn4)cc3NC23CCN(Cc2ccc(F)c(F)c2)CC3)cc1 [Compound 73, 1-(3,4-Difluorobenzyl)-3′-(4-methoxyphenyl)-7′-(pyridin-2-yl)-1′H-spiro[piperidine-4,2′-quinazolin]-4′(3′H)-one] | 5.00 to 6.00 |
| O=C1c2ccc(Br)cc2NC2(CCN(Cc3cccnc3)CC2)N1c1ccc(OC(F)(F)F)cc1 [Compound 118, 7′-Bromo-1-(pyridin-3-ylmethyl)-3′-(4-(trifluoromethoxy)phenyl)-1′H-spiro[piperidine-4,2′-quinazolin]-4′(3′H)-one] | 5.00 to 6.00 |
| COCCOc1ccc2c(c1)NC1(CCN(Cc3ccc(F)c(F)c3)CC1)N(c1ccc(OC(F)(F)F)cc1)C2=O [Compound 121, 1-(3,4-Difluorobenzyl)-7′-(2-methoxyethoxy)-3′-(4-(trifluoromethoxy)phenyl)-1′H-spiro[piperidine-4,2′-quinazolin]-4′(3′H)-one] | 5.00 to 6.00 |

Source: patent US9708321B2, “Spiro-quinazolinone derivatives and their use as positive allosteric modulators of mGluR4” (Merck Patent GmbH, priority 2013, dated 2017)
